Reference: the NIST ThermoML archive (doi:10.1016/j.fluid.2019.06.020)
Numbers after ± are expanded uncertainties.

Conditions: Liquid, Closed cell (Static) method

SMILES	vapor or sublimation pressure (273.17 K) [kPa]	vapor or sublimation pressure (278.17 K) [kPa]	vapor or sublimation pressure (283.16 K) [kPa]	vapor or sublimation pressure (288.16 K) [kPa]	vapor or sublimation pressure (293.15 K) [kPa]	vapor or sublimation pressure (298.15 K) [kPa]	vapor or sublimation pressure (303.15 K) [kPa]	vapor or sublimation pressure (308.15 K) [kPa]	vapor or sublimation pressure (313.15 K) [kPa]	vapor or sublimation pressure (318.15 K) [kPa]	vapor or sublimation pressure (323.15 K) [kPa]	vapor or sublimation pressure (328.15 K) [kPa]	vapor or sublimation pressure (333.15 K) [kPa]	vapor or sublimation pressure (338.14 K) [kPa]	vapor or sublimation pressure (343.14 K) [kPa]	vapor or sublimation pressure (348.13 K) [kPa]	vapor or sublimation pressure (353.13 K) [kPa]	vapor or sublimation pressure (323.14 K) [kPa]	vapor or sublimation pressure (328.14 K) [kPa]	vapor or sublimation pressure (333.14 K) [kPa]
FCC(F)(F)F [1,1,1,2-tetrafluoroethane]	294.3 ± 5	351.2 ± 5.1	415.4 ± 5.1	488.2 ± 5.1	570.6 ± 5.1	664.8 ± 5.2	769.2 ± 5.2	886 ± 5.3	1017.7 ± 5.3	1158.1 ± 5.4	1317.4 ± 5.5	1489.6 ± 5.6	1679.7 ± 5.8	1889.1 ± 6	2118.1 ± 6.2	2361.2 ± 6.4	2634.6 ± 6.7	–	–	–
C=CC(F)(F)F [1,1,1-trifluoro-2-propene]	268.8 ± 5	318.4 ± 5	373.6 ± 5.1	437.6 ± 5.1	510 ± 5.1	590.1 ± 5.1	678.2 ± 5.1	776.7 ± 5.2	883.6 ± 5.2	1001.8 ± 5.3	–	–	–	1600.5 ± 5.7	1785.7 ± 5.8	1986.4 ± 6	2203.1 ± 6.2	1130.4 ± 5.4	1274.9 ± 5.5	1431.6 ± 5.6
